Assay results published in the supplement of paper PMC10307832.

What was measured:
Assay in all cases: relative viability (nuclei count vs DMSO), 5 days (fraction); higher = more cells survive
R406 + Decitabine = compound: COc1cc(Nc2ncc(F)c(Nc3ccc4c(n3)NC(=O)C(C)(C)O4)n2)cc(OC)c1OC [R406] + Nc1ncn([C@H]2C[C@H](O)[C@@H](CO)O2)c(=O)n1 [Decitabine] (partner 2 µM)
How it was run: (§1)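 Cells from lung cancer lines were seeded into 1536-well plates and, one day later, dosed by pin tool. Treatments were either a single drug or a fixed dose of an anchor drug with five library-drug doses (not always all listed) in √10 steps. After 5 days, nuclei were stained in a one-step fixation (final 0.05% Triton X-100, 1% formaldehyde, 1 ug/ml Hoechst) and counted on 4× images, and relative viability is the treated-to-vehicle nuclei ratio, as the median of duplicate plates.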

R406 + Crizotinib = compound: COc1cc(Nc2ncc(F)c(Nc3ccc4c(n3)NC(=O)C(C)(C)O4)n2)cc(OC)c1OC [R406] + C[C@@H](Oc1cc(-c2cnn(C3CCNCC3)c2)cnc1N)c1c(Cl)ccc(F)c1Cl [Crizotinib] (partner 1 µM)
How it was run: as §1

Daporinad + Tozasertib = compound: O=C(/C=C/c1cccnc1)NCCCCC1CCN(C(=O)c2ccccc2)CC1 [Daporinad] + Cc1cc(Nc2cc(N3CCN(C)CC3)nc(Sc3ccc(NC(=O)C4CC4)cc3)n2)n[nH]1 [Tozasertib] (partner 0.1 µM)
How it was run: as §1

Daporinad + Vorinostat = compound: O=C(/C=C/c1cccnc1)NCCCCC1CCN(C(=O)c2ccccc2)CC1 [Daporinad] + O=C(CCCCCCC(=O)Nc1ccccc1)NO [Vorinostat] (partner 1 µM)
How it was run: as §1

Row | Cell Line | relative viability (R406 + Decitabine; first compound 0.08 µM) | relative viability (R406 + Decitabine; first compound 0.253 µM) | relative viability (R406 + Decitabine; first compound 0.8 µM) | relative viability (R406 + Decitabine; first compound 2.53 µM) | relative viability (R406 + Decitabine; first compound 8 µM) | relative viability (R406 + Crizotinib; first compound 0.08 µM) | relative viability (R406 + Crizotinib; first compound 0.253 µM) | relative viability (R406 + Crizotinib; first compound 0.8 µM) | relative viability (R406 + Crizotinib; first compound 2.53 µM) | relative viability (R406 + Crizotinib; first compound 8 µM) | relative viability (Daporinad + Tozasertib; first compound 0.0005 µM) | relative viability (Daporinad + Tozasertib; first compound 0.001581 µM) | relative viability (Daporinad + Tozasertib; first compound 0.005 µM) | relative viability (Daporinad + Tozasertib; first compound 0.01581 µM) | relative viability (Daporinad + Vorinostat; first compound 0.0005 µM) | relative viability (Daporinad + Vorinostat; first compound 0.001581 µM) | relative viability (Daporinad + Vorinostat; first compound 0.005 µM) | relative viability (Daporinad + Vorinostat; first compound 0.01581 µM)
1 | COR-L23 | 0.397 | 0.447 | 0.512 | 0.339 | 0.326 | 0.612 | 0.797 | 0.733 | 0.708 | 0.383 | 0.199 | 0.232 | 0.179 | 0.106 | 0.427 | 0.345 | 0.408 | 0.161
2 | ABC-1 | 1.02 | 1.21 | 1.03 | 0.793 | 0.736 | 1.24 | 1.38 | 1.19 | 0.841 | 0.311 | 0.186 | 0.185 | 0.179 | 0.209 | 0.809 | 1.51 | 1.46 | 0.9
3 | SK-MES-1 | 0.351 | 0.384 | 0.455 | 0.229 | 0.181 | 0.992 | 1.04 | 0.959 | 0.73 | 0.43 | 0.85 | 0.948 | 1.08 | 0.865 | 1 | 1.2 | 1.26 | 1.01
4 | PC-14 | 0.301 | 0.237 | 0.25 | 0.0789 | 0.0868 | 0.92 | 1.06 | 0.862 | 0.79 | 0.687 | 0.688 | 0.633 | 0.606 | 0.709 | 0.519 | 0.863 | 0.898 | 0.472
5 | SW 900 | 0.486 | 0.469 | 0.446 | 0.555 | 0.173 | – | – | – | – | – | 0.638 | 0.473 | 0.735 | 0.346 | 0.461 | – | 0.86 | 0.3
6 | A549 | 0.22 | 0.261 | 0.257 | 0.258 | 0.311 | 0.785 | 0.837 | 0.941 | 0.337 | 0.175 | – | – | – | – | – | – | – | –
7 | A-427 | 0.583 | 0.626 | 0.717 | 0.514 | 0.571 | 1 | 1.14 | 0.914 | 0.629 | 0.273 | 0.207 | 0.22 | 0.198 | 0.153 | 0.838 | 0.886 | 0.793 | 0.659
8 | NCI-H1792 | 0.558 | 0.727 | 0.59 | 0.515 | 0.352 | 0.842 | 1.03 | 1.03 | 0.925 | 0.884 | – | – | – | – | – | – | – | –
9 | LCLC-97TM1 | 0.259 | 0.27 | 0.247 | 0.19 | 0.274 | 0.418 | 0.443 | 0.38 | 0.29 | 0.244 | 0.194 | 0.432 | 0.181 | 0.253 | 0.547 | 0.686 | 0.867 | 1.1
10 | NCI-H1703 | – | – | – | – | – | 0.623 | – | 0.662 | 0.199 | 0.129 | – | – | – | – | – | – | – | –
11 | LCLC-103H | 0.707 | 0.712 | 0.744 | 0.746 | 0.707 | 1.07 | 1.24 | 0.954 | 0.971 | 0.828 | 0.548 | 0.5 | 0.514 | 0.525 | 0.747 | 0.835 | 0.864 | 0.999
12 | RERF-LC-KJ | 0.706 | 0.628 | 0.72 | 0.252 | 0.529 | 0.762 | 0.838 | 0.875 | 0.81 | 0.771 | 0.559 | 0.45 | 0.562 | 0.517 | 0.659 | 0.795 | 0.814 | 0.701
13 | BEN | 0.679 | 0.793 | 0.726 | 0.683 | 0.441 | 0.923 | 1.32 | 1.15 | 0.785 | 0.641 | 0.552 | 0.547 | 0.422 | 0.546 | 0.554 | 0.661 | 0.679 | 0.63
14 | NCI-H1666 | 0.672 | 0.792 | 0.637 | 0.936 | 0.74 | 0.92 | 1.3 | 0.973 | 0.849 | 0.461 | 0.619 | 0.635 | 0.655 | 0.701 | 0.98 | 1.03 | 0.956 | 1.07
15 | Calu-6 | – | – | – | – | – | 0.697 | 0.954 | 0.909 | 0.494 | 0.36 | – | – | – | – | – | – | – | –
16 | NCI-H1648 | 0.53 | 0.527 | 0.483 | 0.515 | 0.36 | – | – | – | – | – | 0.362 | 0.652 | 0.416 | 0.6 | 0.439 | 0.333 | 0.424 | 0.41
17 | EBC-1 | – | – | – | – | – | 0.155 | 0.231 | 0.153 | 0.209 | 0.166 | – | – | – | – | – | – | – | –
18 | NCI-H1299 | – | – | – | – | – | 0.941 | 0.946 | 0.977 | 1.03 | 0.543 | – | – | – | – | – | – | – | –
19 | NCI-H2228 | – | – | – | – | – | 0.572 | 0.435 | 0.528 | 0.164 | 0.101 | 0.264 | 0.201 | 0.322 | 0.294 | 0.568 | 0.606 | 0.692 | 0.544
20 | NCI-H522 | 0.726 | 0.688 | 0.762 | 0.587 | 0.616 | – | – | – | – | – | 0.599 | 0.533 | 0.484 | 0.433 | 0.995 | 1.13 | 0.946 | 0.544
21 | IA-LM | – | – | – | – | – | 0.972 | 1.21 | 1.01 | 1.11 | 0.657 | – | – | – | – | 0.855 | 1.25 | 0.986 | 1.09
22 | NCI-H1793 | 0.528 | 0.469 | 0.446 | 0.409 | 0.177 | – | – | – | – | – | 0.327 | 0.326 | 0.34 | 0.553 | 0.542 | 0.508 | 0.809 | 0.969
23 | NCI-H1623 | – | – | – | – | – | – | – | – | – | – | 0.438 | 0.44 | 0.39 | 0.445 | – | – | – | –
24 | CAL-12T | – | – | – | – | – | 0.693 | 0.746 | 0.731 | 0.503 | 0.121 | 0.324 | 0.325 | 0.158 | 0.124 | 0.659 | 0.799 | 0.402 | 0.217
